The record followed here is PubChem BioAssay AID743395 (Broad Institute, 2014).

This test relates to HepG2 viability, CellTiter-Glo ATP luminescence, 72 h. The test can be described thus: viability loss in human hepatoma cells – cell-based, CellTiter-Glo luminescence, cherry-pick, set 2, cytotoxicity control, dose response (AID 743395). A general note: ATP-based viability assays read luminescence as a measure of living cells.

As for `C1CCC(C(CC2CCCCN2)C2CCCCC2)CC1` (stereo unspecified), the AC35 was 6.26 µM.

As for `O=C(CCCl)Nc1nc2c(s1)CCc1ccccc1-2`, the AC35 was 20.6 µM.

Take `CN1C(=CC=C2C=C(I)C(=O)C(I)=C2)C(C)(C)c2ccccc21`: the AC35 was 3.56 µM.

In the case of `C#C[C@]1(O)CC[C@H]2[C@@H]3CCc4cc(OC5CCCC5)ccc4[C@H]3CC[C@@]21C`, the AC35 is 21 µM.

In the case of `O=C(c1cccc(S(=O)(=O)N2CCN(c3ccc(F)cc3)CC2)c1)N1CCCC(C(F)(F)F)C1` (stereo unspecified), the AC35 is 9.64 µM.

Consider `CN1/C(=C\C=C2/SC(=S)NC2=O)C(C)(C)c2ccccc21`, for which the AC35 was 17.9 µM.

On to `COc1ccc(OC)c(Nc2cc(C)nc3ccc(C)cc23)c1`, for which the AC35 is 2.93 µM.

Regarding `COc1nc(-c2ccccc2)cc(-c2ccc3c(c2)OCO3)c1C#N`, the AC35 is 8.32 µM.

Take `N#CC1=C(N)Oc2cc(N)ccc2C1c1cccc(F)c1` (stereo unspecified): the AC35 is 6.38 µM.

Consider `CCc1c(C)nc2ncnn2c1NCCc1ccc(OC)cc1`, for which the AC35 is 11.5 µM.

For `Cc1ccc(-n2nnnc2SCC(=O)NC(C(=O)O)(c2ccccc2)c2ccccc2)cc1C`, the AC35 is 15 µM.

In the case of `COc1ccc(S(=O)(=O)NCc2ccccn2)cc1NC(=O)c1ccccc1F`, the AC35 is 18.5 µM.

In the case of `COc1ccc(NC(=O)C2(C)Cc3c(-c4cccc(NC(C)=O)c4)ccnc3O2)cc1` (stereo unspecified), the AC35 is 4.15 µM.

Regarding `CC/C=C/CC(=O)N[C@@H](c1ccccc1)[C@@H](O)C(=O)O[C@H]1C[C@@]2(O)[C@@H](OC(=O)c3ccccc3)C3[C@](C)(C(=O)[C@H](OC(C)=O)C(=C1C)C2(C)C)[C@@H](O)C[C@H]1OC[C@@]31OC(C)=O` (stereo partly specified), the AC35 was 1.98 µM.

On to `CC(=O)Oc1ccc(N2C(=O)c3cccc4c([N+](=O)[O-])ccc(c34)C2=O)cc1`, for which the AC35 is 16.7 µM.

As for `COC(=O)c1ccc(S(=O)(=O)N2CCc3ccccc32)cc1`, the AC35 is 16.1 µM.

For the molecule `O=C(c1cccc(F)c1)N1CC[C@@H]2[C@H](CO)Nc3ccc(-c4ccccc4F)cc3[C@@H]21`, the AC35 was 18.1 µM.

In the case of `CCc1ccc(OCCNc2cc(N3CCNC(C)C3)ccc2[N+](=O)[O-])cc1` (stereo unspecified), the AC35 is 9.58 µM.

For `CC(=NNC(=S)N(Cc1ccccn1)Cc1ccccn1)c1cnccn1`, the AC35 was 2.87 µM.

For `Nc1ccn([C@@H]2O[C@H](CO)[C@@H](O)[C@@H]2O)c(=O)n1`, the AC35 is 7.89 µM.

Consider `O=C(Nc1ccccc1)N1CCCCN2[C@@H](CO)[C@H](c3ccc(C#Cc4ccccc4)cc3)[C@@H]2C1`, for which the AC35 was 10.9 µM.

With `CCOc1ccc2[nH]c(C(=O)N/N=C/c3ccc(OC)cc3)cc2c1`, the AC35 is 4.77 µM.

`CCC(=O)N1CC2(CCN(Cc3ccc(Cl)cc3)CC2)c2c([nH]c3cc(OC)ccc23)[C@H]1CO`: the AC35 was 9.3 µM.

In the case of `COC(=O)c1ccccc1-c1c2ccc(=N)cc-2oc2cc(N)ccc12`, the AC35 was 15.8 µM.

For the molecule `C=C1SC(Nc2c(C)cc(C)cc2C)=NC12CCCCC2`, the AC35 was 17.2 µM.

For the molecule `COc1ccc(Nc2nc(-c3sc(C)nc3C)cs2)cc1`, the AC35 was 1.29 µM.

In the case of `NS(=O)(=O)c1ccc(CCNc2nn3c(-c4cccc(OC(F)(F)F)c4)cnc3s2)cc1`, the AC35 is 16.7 µM.

As to `CCOc1ccc(C(=O)O/N=C(\N)c2ccccn2)cc1`, the AC35 is 16.5 µM.

As for `Cc1nc(/N=C(\N)NC(=O)NC2CCCCC2)nc2ccccc12`, the AC35 is 20.2 µM.

As to `COc1ccc(NC(=O)C(=O)NCC2CCCN2S(=O)(=O)c2cccs2)cc1` (stereo unspecified), the AC35 is 12.8 µM.

For `CCOC(=O)c1cc2c(=Cc3ccc(N(C)C)cc3)c3ccccc3n2[n+]1C`, the AC35 is 16.6 µM.

Regarding `CCCC(=O)NC(c1ccc(N(C)C)cc1)c1ccc2cccnc2c1O` (stereo unspecified), the AC35 was 1.18 µM.

As to `COc1ccc(S(=O)(=O)N2CC[C@@H]3[C@H](CO)N(C)c4ccc(-c5ccc(F)cc5)cc4[C@@H]32)cc1`, the AC35 was 2.21 µM.

Turning to `COc1cccc(/C=N/NC(=O)C(=O)Nc2ccccc2OC(F)(F)C(F)F)c1O`, the AC35 is 15 µM.

As to `O=C1c2cccc3c(O)ccc(c23)C(=O)N1Cc1ccco1`, the AC35 is 15.6 µM.

As for `CCCCNC(=O)C(=O)Nc1ccc2c(c1)N(S(=O)(=O)c1cccs1)CCC2`, the AC35 is 12.7 µM.

For `COc1cccc(Sc2ccccc2/C=N/NC(N)=O)c1`, the AC35 is 9.98 µM.

Consider `CCCCC(=NCCc1c(C)[nH]c2ccc(OC)cc12)C1=C(O)CC(c2ccccc2)CC1=O` (stereo unspecified), for which the AC35 was 8.11 µM.

`CCN1/C(=C\c2ccc3cc(C)ccc3[n+]2CC)Sc2cc(C)c(C)cc21`: the AC35 is 3.19 µM.

Turning to `O=C(NN=C1CCCC1)c1[nH]c2ccc(Cl)cc2c1-c1ccccc1`, the AC35 was 18.9 µM.

In the case of `O=C(Nc1ccc(OC(F)(F)F)cc1)c1ccc2c(c1)no[n+]2[O-]`, the AC35 was 17.6 µM.

With `Cc1ccc2c(c1)CCCN2C(=O)CCc1nc2ccccc2c(=O)[nH]1`, the AC35 is 7.93 µM.

With `COc1ccc(OC)c(Nc2nc(-c3sc(NC(=O)C(C)(C)C)nc3C)cs2)c1`, the AC35 is 9.87 µM.

Take `CC(C)N1CCc2c(sc(NC(=O)c3ccc([N+](=O)[O-])o3)c2C(N)=O)C1`: the AC35 was 4.77 µM.

Turning to `COc1ccc2noc3c2c1C(=O)c1ccccc1-3`, the AC35 is 15.4 µM.

Consider `COc1ccccc1Nc1nc(-c2sc(NC(=O)C(C)(C)C)nc2C)cs1`, for which the AC35 is 15.7 µM.

`COCC(=O)N1CC2(CCN(Cc3ccccc3)CC2)c2c([nH]c3cc(OC)ccc23)[C@H]1CO`: the AC35 was 5.27 µM.

As for `CCc1cc(-c2nnn(CCC3COCCO3)c2CC)ccc1-c1cn(Cc2ccc3ccccc3c2)nn1` (stereo unspecified), the AC35 was 15.8 µM.

Turning to `CN(C)CCn1c2ccccc2c2nc3ccc([N+](=O)[O-])cc3cc21`, the AC35 is 20.8 µM.

Take `Cc1ccc2[nH]c(-c3ccccc3)cc(=O)c2c1`: the AC35 is 5.6 µM.

Consider `COc1cccc(S(=O)(=O)N2C[C@@H]3N[C@H](C2)C3c2ccc(-c3ccccc3F)cc2)c1` (stereo partly specified), for which the AC35 is 11.3 µM.

Regarding `CC(=O)NC(c1ccc2ccccc2c1)c1ccc2cccnc2c1O` (stereo unspecified), the AC35 is 0.641 µM.

Regarding `Cc1cc2[nH]c3c(c[n+](C)c4ccccc34)c2cc1C`, the AC35 is 2.58 µM.

`COc1ccc(-c2cc(C(F)F)n3ncc(C(=O)N4CCc5ccccc54)c3n2)cc1`: the AC35 is 9.81 µM.

Take `Cc1nc(C)c(C(=O)NN=Cc2ccc(N(CCCl)CCCl)cc2)s1`: the AC35 was 11.8 µM.

For the molecule `Cc1occc1C(=O)N/N=C/c1c(O)ccc2ccccc12`, the AC35 is 6.44 µM.

Turning to `N#C[C@H]1[C@H](c2ccc(C3=CCCCC3)cc2)[C@@H](CO)N1C(=O)NC1CCCCC1`, the AC35 is 10.3 µM.

Consider `COc1cc(/C=C2/SC(=Nc3ccc(O)cc3)NC2=O)cc(OC)c1O`, for which the AC35 was 14.7 µM.

As for `CN(C)C(=O)C(CCN1CCC(O)(c2ccc(Cl)cc2)CC1)(c1ccccc1)c1ccccc1`, the AC35 was 10.1 µM.

`CCC(=O)N1CC2(CCN(Cc3ccc(Cl)cc3)CC2)c2c(n(C)c3cc(OC)ccc23)[C@H]1CO`: the AC35 was 9.27 µM.

Consider `CC(=O)Nc1cccc(-c2ccnc3c2CC(C)(C(=O)NCc2cccs2)O3)c1` (stereo unspecified), for which the AC35 was 2.49 µM.

Regarding `CC(=O)Nc1cccc(-c2ccnc3c2CC(C)(C(=O)Nc2ccc4c(c2)OCO4)O3)c1` (stereo unspecified), the AC35 was 17.4 µM.

With `CC(=O)N1CCc2cc(S(=O)(=O)N3c4ccccc4CC3C)ccc21` (stereo unspecified), the AC35 is 10.2 µM.

Regarding `Cc1onc(-c2ccccc2Cl)c1C(=O)N1CCN(c2cccc(Cl)c2)CC1`, the AC35 is 13.5 µM.

As to `COc1ccc(C(=O)OCC(=O)N2C(C)CCCC2C)cc1S(=O)(=O)N1CCOCC1` (stereo unspecified), the AC35 is 18.7 µM.

Consider `CCN(CC)CCCNc1ccc2ncn3c4ccc(O)cc4c(=O)c1c23`, for which the AC35 is 1.03 µM.
